Experimental data as given in publication PMC7136958, “Targeting the pregnane X receptor using microbial metabolite mimicry” (EMBO Molecular Medicine, 2020).
Where “and” joins values, the source holds several entries; their conditions need not be identical. Equal values may be shown once. Read-outs that look alike come from different tables or passages of the source.

Assays:
PXR = molecular target: T1, PXR (Homo sapiens, UniProt O75469); assay: PXR reporter (p3A4-luc luciferase) assay in LS180 cells transiently transfected with wild-type PXR
T1 sequence (O75469 1-434): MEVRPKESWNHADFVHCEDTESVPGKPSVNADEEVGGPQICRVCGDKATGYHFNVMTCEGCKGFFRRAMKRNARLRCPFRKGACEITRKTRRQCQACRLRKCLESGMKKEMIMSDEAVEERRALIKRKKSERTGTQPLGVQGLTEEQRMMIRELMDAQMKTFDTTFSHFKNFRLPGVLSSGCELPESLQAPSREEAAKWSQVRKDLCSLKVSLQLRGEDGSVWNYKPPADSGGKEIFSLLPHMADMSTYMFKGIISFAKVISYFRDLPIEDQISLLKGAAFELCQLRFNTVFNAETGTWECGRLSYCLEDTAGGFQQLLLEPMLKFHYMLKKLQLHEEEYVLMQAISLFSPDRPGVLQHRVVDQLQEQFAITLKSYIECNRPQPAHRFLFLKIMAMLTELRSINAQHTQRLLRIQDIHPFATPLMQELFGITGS
Protocol: Incubations were performed in four technical replicates. After the treatments, cells were lysed and luciferase activity was measured on Tecan Infinite M200 Pro plate reader (Schoeller Instruments, Prague, Czech Republic). The data are expressed as fold induction ± SD of luciferase activity over the control cells (agonistic mode—in the absence of a model ligand) or as a percentage of maximal activation ± SD (antagonistic mode—in the presence of a model ligand). […] For all the transfection experiments, specifically multiplexed transfections, the control wells were mock‐transfected ([…]). However, to exclude non‐specific binding of PXR (or other factors) upstream of the luciferase gene within non‐PXR‐binding elements, we performed pilot experiments in different cell passages (P11, P14, and P17) of LS174T cells using a mock luciferase plasmid (luciferase not containing an upstream PXR‐binding element of the CYP3A4 promoter).

AhR = molecular target: T2, AhR (Homo sapiens, UniProt P35869); assay: AhR reporter assay, HepG2 cells stably expressing pCYP1A1 luciferase (AZ-AHR); type: cell-based
T2 construct: endogenous in cells; host or cells: AZ-AHR (HepG2)
T2 sequence (P35869 11-848): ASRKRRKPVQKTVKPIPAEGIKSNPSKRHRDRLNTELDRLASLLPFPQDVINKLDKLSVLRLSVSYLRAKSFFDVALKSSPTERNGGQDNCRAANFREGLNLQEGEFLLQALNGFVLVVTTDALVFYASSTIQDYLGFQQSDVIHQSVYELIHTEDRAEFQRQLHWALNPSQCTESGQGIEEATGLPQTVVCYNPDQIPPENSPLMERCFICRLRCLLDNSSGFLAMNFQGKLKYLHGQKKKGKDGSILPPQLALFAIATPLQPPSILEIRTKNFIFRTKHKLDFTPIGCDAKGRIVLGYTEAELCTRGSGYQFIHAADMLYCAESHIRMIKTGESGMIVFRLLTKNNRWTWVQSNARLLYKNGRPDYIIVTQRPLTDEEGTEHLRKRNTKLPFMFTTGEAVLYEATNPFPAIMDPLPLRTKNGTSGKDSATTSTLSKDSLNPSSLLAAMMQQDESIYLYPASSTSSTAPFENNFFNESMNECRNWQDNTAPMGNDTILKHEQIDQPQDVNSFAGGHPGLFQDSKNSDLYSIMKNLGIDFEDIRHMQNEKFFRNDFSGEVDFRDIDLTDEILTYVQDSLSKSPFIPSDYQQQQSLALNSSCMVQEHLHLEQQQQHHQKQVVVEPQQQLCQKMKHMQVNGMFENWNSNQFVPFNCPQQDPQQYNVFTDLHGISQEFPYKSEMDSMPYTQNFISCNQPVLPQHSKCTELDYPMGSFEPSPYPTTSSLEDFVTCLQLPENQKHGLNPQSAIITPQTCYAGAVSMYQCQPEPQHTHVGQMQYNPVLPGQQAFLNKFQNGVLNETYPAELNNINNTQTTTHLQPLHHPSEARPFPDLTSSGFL
Protocol: Incubations were performed in four technical replicates.

hPXR-LBD (PXR.1) = molecular target: T3, hPXR-LBD (PXR.1) (Homo sapiens, UniProt O75469); assay: Isothermal titration calorimetry with His-tagged hPXR-LBD; type: binding
T3 construct: made in house; host or cells: E. coli BL21-Gold
T3 sequence (O75469 146-433 limits assumed): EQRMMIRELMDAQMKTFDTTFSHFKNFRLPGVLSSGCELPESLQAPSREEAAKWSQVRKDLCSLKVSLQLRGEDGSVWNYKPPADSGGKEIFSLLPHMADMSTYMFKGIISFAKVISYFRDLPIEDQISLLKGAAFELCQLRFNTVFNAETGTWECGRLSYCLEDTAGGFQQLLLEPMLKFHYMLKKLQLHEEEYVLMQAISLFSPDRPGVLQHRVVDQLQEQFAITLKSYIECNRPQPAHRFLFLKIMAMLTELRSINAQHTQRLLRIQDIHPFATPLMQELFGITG
Protocol: The cloning, expression, and purification of His‐tagged PXR‐LBD were performed as previously published (Wallace et al, 2013) with the following modifications: For protein expression, Luria–Bertani (LB) media were inoculated with a saturated culture of BL21‐Gold cells transformed with HIS‐LIC plasmid containing the PXR‐LBD construct. The mixture was allowed to shake at 37°C until the cells reached an OD600 ~ 0.6, and then, the temperature was reduced to 18°C, at which time IPTG was added (final concentration of 0.1 mM) to induce protein expression. For purification, the His‐tag was not removed, and the uncleaved protein was loaded onto the gel filtration column with buffer containing HEPES (4‐(2‐hydroxyethyl)‐1‐piperazineethanesulfonic acid) (25 mM, pH 7.5) and NaCl (150 mM).
Isothermal titration calorimetry (ITC) was carried out using a VP‐ITC microcalorimeter from MicroCal⁄Malvern Instruments (Northampton, MA, USA). […] In all the experiments, the ligand solution was injected in 10 μl aliquots into the calorimetric cell containing PXR‐LBD (ligand‐binding domain) at a concentration of 3–6 μM. […] The experiments were carried out at 37°C. The heat evolved upon each injection of the ligands was obtained from the integral of the calorimetric signal. The heat associated with binding to PXR‐LBD in the cell was obtained by subtracting the heat of dilution from the heat of reaction.

NF-κB = assay: TNF-α-induced NF-κB reporter assay in LS174T PXR-KO cells; details: LS174T PXR-KO, EXP3; 10 μM + TNFα 5 ng/ml; TNFa 5 ng/ml = 100; listed as RIF
Source text: In early passage PXR‐KO cells, we used PXR and NF‐κB reporter‐co‐transfected and NF‐κB reporter‐transfected PXR‐KO cell line.
CRISPR/Cas9‐mediated knockout cells were generated by Synthego Corporation (Redwood City, CA, USA). Briefly, cells were first tested negative for mycoplasma. Guide RNA was selected for high activity, specificity, and activity to create premature stop codons through frameshift mutations in the coding region via insertions and/or deletions (Indels) within exon 2 of the gene encoding human PXR (NR1I2 transcript ID ENST00000337940). […] To generate these cells, ribonucleoproteins (RNPs) containing the Cas9 protein and synthetic chemically modified sgRNA (Synthego) were electroporated into the cells using Synthego's optimized protocol. Editing efficiency is assessed upon recovery, 48 h post‐electroporation. Genomic DNA is extracted from a portion of the cells, PCR‐amplified, and sequenced using Sanger sequencing. The resulting chromatograms are processed using Synthego Inference of CRISPR Edits software (ice.synthego.com).

[1] = tested on: CYP1A1, CYP3A4, MDR1 mRNA in LS180 cells; assay: qRT-PCR of CYP1A1, CYP3A4, MDR1 mRNA in LS180 cells with or without (mock) transfected PXR; details: normalised to GAPDH, fold to UT control
Protocol: (§1) Cells or primary human hepatocytes from four different donors (HEP200529, HEP220932, HEP200533, and HEP200538) were incubated for 24 h with test compounds; the vehicle was DMSO (0.1% v/v). Total RNA was isolated using TRI Reagent® (Molecular Research Center, Ohio, USA). cDNA was synthesized from 1,000 ng of total RNA using M‐MuLV Reverse Transcriptase (New England Biolabs, Ipswich, Massachusetts, USA) at 42°C for 60 min in the presence of random hexamers (New England Biolabs). Quantitative reverse transcriptase–polymerase chain reaction (qRT–PCR) was performed using LightCycler® 480 Probes Master on a LightCycler® 480 II apparatus (Roche Diagnostic Corporation).
(§2) The following protocol was used: An activation step at 95°C for 10 min was followed by 45 cycles of PCR (denaturation at 95°C for 10 s; annealing with elongation at 60°C for 30 s). The measurements were performed in triplicate. Gene expression was normalized per GAPDH as a housekeeping gene. […] Data are expressed as fold induction ± SD over the vehicle‐treated cells. The bar graph depicts one representative experiment of a series of experiments performed in three consecutive passages of cells. Differences were tested using one‐way ANOVA with Dunnett's post hoc test, and P < 0.05 was considered significant.

[2] = tested on: CYP1A1, CYP3A4, MDR1 mRNA in HepaRG cells; details: for 1A1 mRNA fold to C: normalised to GAPDH, fold vs UT
Protocol: Caco‐2 cells were purchased from ATCC, and authenticity was validated by multiplexed STR DNA (short tandem repeat deoxyribonucleic acid) profiling performed by Genetica. […] Cells were maintained at 37°C and 5% CO2 in a humidified incubator. […] Three HepaRG™‐derived cell lines, including 5F Clone control cells, and cells with targeted functional PXR and AhR gene knockouts, PXR‐KO and AhR‐KO, respectively, were purchased from Sigma (Czech Republic). Cells were handled according to the manufacturer's protocol. Human hepatocytes were purchased from Biopredic International (France) and Triangle Research Labs, LLC, Lonza (USA). Cultures were maintained in serum‐free medium at 37°C and 5% CO2 in a humidified incubator.
The measurements were performed in triplicate.

[3] = tested on: CYP1A1, CYP3A4, MDR1 mRNA in primary human hepatocytes; assay: qRT-PCR of CYP1A1, CYP3A4, MDR1 mRNA in primary human hepatocytes (four donors); details: for CYP1A1 (1A1) mRNA, fold to C: primary human hepatocytes, fold vs untreated (UT)
Protocol: as §1, §2

[4] = LS180, read-out: FOLD INDUCTION of PXR reporter luciferase activity

Cc1[nH]c2ccccc2c1C(c1c(C)[nH]c2ccccc12)c1c(C)[nH]c2ccccc12 [FKK999, reference compound]
aver (mean luciferase signal of H1-H4) (PXR; 1 nM): 2509.3
aver (mean luciferase signal of H1-H4) (PXR; 10 nM): 3525.3
aver (mean luciferase signal of H1-H4) (PXR; 100 nM): 5905.5
aver (mean luciferase signal of H1-H4) (PXR; 1 uM): 26021.5
aver (mean luciferase signal of H1-H4) (PXR; 10 uM): 42646.5
aver (mean luciferase signal of H1-H4) (PXR; 25 uM): 44375.0
aver (mean luciferase signal of H1-H4) (PXR; 50 uM): 44986.8
fold induction at 0.001 µM (PXR; [4]): 1.39
fold induction at 0.01 µM (PXR; [4]): 1.95
fold induction at 0.1 µM (PXR; [4]): 3.27
fold induction at 1 µM (PXR; [4]): 14.4
fold induction at 10 µM (PXR; [4]): 23.6
fold induction at 25 µM (PXR; [4]): 24.5
fold induction at 50 µM (PXR; [4]): 24.9
PXR activation (in words) (PXR; cell-based transactivation): activated PXR
AhR activation (in words) (AhR): variable degrees of dose‐dependent AhR activation profiles
fold induction at 24 h, 0.001 µM (AhR; human, AZ-AHR cells, 1 nM, fold vs DMSO): 1
fold induction at 24 h, 0.01 µM (AhR; human, AZ-AHR cells, 10 nM, fold vs DMSO): 1
fold induction at 24 h, 0.1 µM (AhR; human, AZ-AHR cells, 100 nM, fold vs DMSO): 3.5
fold induction at 24 h, 1 µM (AhR; human, AZ-AHR cells, 1µM, fold vs DMSO): 10.2
fold induction at 24 h, 10 µM (AhR; human, AZ-AHR cells, 10 µM, fold vs DMSO): 28.2

O=C(O)CCc1c[nH]c2ccccc12 [IPA, indole‐3‐propionic acid, reference compound]
thermal signature of interaction with hPXR-LBD (hPXR-LBD (PXR.1)): did not induce a thermal signature

CO[C@H]1/C=C/O[C@@]2(C)Oc3c(C)c(O)c4c(O)c(c(/C=N/N5CCN(C)CC5)c(O)c4c3C2=O)NC(=O)/C(C)=C\C=C\[C@H](C)[C@H](O)[C@@H](C)[C@@H](O)[C@@H](C)[C@H](OC(C)=O)[C@@H]1C [Rifampicin, reference compound]
NFkB %max (NF-κB): 94.8% and 94.84%

Clc1cc2c(cc1Cl)Oc1cc(Cl)c(Cl)cc1O2 [TCDD, 2,3,7,8‐tetrachlorodibenzo‐p‐dioxin, reference compound]
CYP1A1 mRNA fold to C ([1]; PXR-transfected LS180 cells): 1299.13
CYP1A1 mRNA fold to C ([1]; mock-transfected LS180 cells): 2347.10
1A1 mRNA fold to C ([2]; HepaRG AHR-KO): 1.24 fold
1A1 mRNA fold to C ([2]; HepaRG CONTROL 5F Clone): 151.69 fold
CYP1A1 (1A1) mRNA, fold to C ([2]; HepaRG PXR-KO cells, qRT-PCR normalised to GAPDH, fold vs untreated (UT)): 338.18 fold
CYP1A1 mRNA induction ([2]; HepaRG control 5F clone, PXR-KO, AhR-KO): induces
CYP1A1 mRNA induction ([3]; four donors): induced CYP1A1 mRNA in all cells
CYP1A1 mRNA fold to C ([3]; primary human hepatocytes donor Hep200538, normalised to GAPDH, fold to UT control): 10734.74
CYP1A1 (1A1) mRNA, fold to C ([3]; donor Hep200529, normalised to GAPDH): 394.35 fold
CYP1A1 (1A1) mRNA, fold to C ([3]; donor Hep200533, normalised to GAPDH): 1246.21 fold
CYP1A1 (1A1) mRNA, fold to C ([3]; donor Hep220932, normalised to GAPDH): 962.07 fold
fold induction at 24 h (AhR; human, AZ-AHR cells, positive control, fold vs UT, concentration not given): 485
